# US20150072416A1, “METABOLITE FOR IMPROVING PRODUCTION, MAINTENANCE AND PROLIFERATION OF PLURIPOTENT STEM CELLS, COMPOSITION COMPRISING THE SAME, AND METHOD OF CULTURING PLURIPOTENT STEM CELL USING THE SAME” (KOREA RESEARCH INSTITUTE OF BIOSCIENCE AND BIOTENOLOGY, priority 2012, published 2015)
# Key:
# [1] = system: human fibroblasts transfected with reprogramming factor OSKM; experiment: Quantification of protein damage caused by oxidative stress; type: cell-based; conditions: 1 mM
# Procedure: On days 12, 19 and 26 of induction of reprogramming, protein was isolated from a control group and a nicotinamide-treated group (Nam), after which it was quantified and treated with 2,4-dinitrophenylhydrazine to expose the carbonyl group. The protein was separated according to molecular weight using 10% SDS-polyacrylamide gel, and then protein damage caused by oxidative stress was analyzed using dinitrophenyl antibody. After normalization to the expression level of β-actin, the degree of damage was quantified relative to the degree of damage to hFFs taken as 1.
# [2] = system: human foreskin fibroblasts (hFFs); experiment: Reprogramming efficiency of human fibroblasts into induced pluripotent stem cells (AP-positive colonies); type: cell-based; conditions: for efficiency of reprogramming by timing of treatment: 1 mM
# Procedure: Reprogramming efficiency was determined by measuring the number of colonies showing a positive response in the pluripotency-specific marker alkaline phosphatase (AP) staining and having hESC-like morphology. For production of iPSC, human foreskin fibroblasts (hFFs) were seeded on gelatin-coated 6-well plates at a concentration of 1×10^5 cells per well at 6 hours before transfection and were transfected with virus in the presence of polybrene (6 μg/ml). At 5 days after the transfection, the hFFs were collected by trypsin treatment and reseeded on Matrigel-coated 6-well plates at a concentration of 5-6×10^4 cells per well in order to perform experiments in feeder-free conditions. The medium was replaced with MEF-CM medium containing 10 ng/ml of bFGF. The medium was replaced at 2-day intervals. At 20 days after the transfection, hESC-like colonies were collected and transferred to 12-well plates having MEFs as feeder cells, and then the colonies were continuously cultured using the hESC culture method described in Example 1. In order to measure the efficiency of reprogramming into human induced pluripotent stem cells, the number of colonies stained with the embryonic stem cell marker ALP on the Matrigel-coated 6-well plate was counted, and the efficiency of reprogramming was calculated. Each experiment was performed in triplicate. AP staining was performed using a commercial AP kit (Sigma) according to the manufacturer's instruction. Images of AP-positive cells were recorded with HP Scanjet G4010. Also, bight field images were obtained with an Olympus microscope (IX51, Olympus, Japan). In order to examine the change in reprogramming efficiency of human fibroblasts caused by nicotinamide, retrovirus expressing the reprogramming factors Oct4, Sox2, Klf4 and c-Myc was transfected at an MOI of 1. Reprogramming efficiencies caused by the addition of nicotinamide and other NAD precursors were examined.
# [3] = system: human fibroblasts transfected with reprogramming factors; experiment: Reprogramming kinetics of hiPSCs (stem cell marker expression, time to colonies); type: cell-based
# Procedure: Total RNA was isolated from produced cells using an RNeasy Mini kit (Qiagen, Valencia, Calif.) and reverse-transcribed using a SuperScript First-strand synthesis system kit (Invitrogen) according to the manufacturer's instruction. Then, semi-quantitative RT-PCR was performed using a platinum Tag SuperMix kit (Invitrogen) under the following conditions: 94° C. for 3 minutes, and then 25-30 cycles, each consisting of 94° C. for 30 sec, 60° C. for 30 sec and 72° C. for 30 sec, followed by extension at 72° C. for 10 minutes. For immunostaining, cells were seeded on Matrigel-coated 4-well Lab-Tek chamber slides (Nunc, Naperville, Ill.) and cultured for 5 days under the indicated conditions. The cells were fixed in 4% paraformaldehyde at room temperature for 15 minutes, and then washed with PBS/0.2% BSA. Next, the cells were passed through PBS/0.2% BSA/0.1% Triton X-100 for 15 minutes, and then incubated with 4% normal donkey serum (Molecular Probes, Eugene, Oreg., USA) in PBS/0.2% BSA at room temperature for 1 hour. The cells were diluted with PBS/0.2% BSA, and then reacted with primary antibody at 4° C. for 2 hours. After washing, the cells were reacted with FITC- or Alexa594-conjugated secondary antibody (Invitrogen) in PBS/0.2% BSA at room temperature for 1 hour. The cells were counter-stained with 10 μg/ml DAPI. […] From day 5 of culture (D5), the expression levels of the stem cell markers Nanog and Tra-1-60 in the cell group treated with nicotinamide increased by 3 times and 8 times, respectively, compared to those in the untreated group (FIG. 6).
# embryonic stem cells = experiment: Embryonic stem cells treated with NAD+ synthesis inhibitor FK866 and NAD precursors (NAD level, AP activity, apoptosis); type: cell-based, human; conditions: co-treatment with FK866; also in mTeSR1-CDM
# Procedure: Embryonic stem cells were treated with nicotinamide and related compounds, and after 6 days, protein was isolated from the cells. NAD cycling enzyme was added to and reacted with 20 μg of the protein per each group at room temperature for 5 minutes, and then a NADH developer was added and reacted therewith for 2-3 hours. The absorbance at 450 nm was measured using a microplate reader, and the amount of the […] was quantified.
# AP staining was performed using a commercial AP kit (Sigma) according to the manufacturer's instruction. Images of AP-positive cells were recorded with HP Scanjet G4010. Also, bight field images were obtained with an Olympus microscope (IX51, Olympus, Japan).
# In order to examine the effect of nicotinamide on a reduction in the apoptosis of human pluripotent stem cells, dual apoptosis assay (Biotium, Hayward, Calif.) was performed. Embryonic stem cells or cells reprogrammed were stained with NucView™488 Caspase-3 Substrate (green)/Annextin V (red) at room temperature for 30 minutes, followed by washing with PBS. At least 4 sections of each sample were imaged with an Olympus fluorescence microscope (IX51, Olympus), and the number of cells stained with green (Caspase-3) was counted to quantify the degree of apoptosis.
# [4] = from day 5 of culture, compared to untreated group
structure (smiles),measurement,setting,value
NC(=O)c1cccnc1 [nicotinamide],amount of damaged protein (oxidative stress),[1],decreased
same,increase in reprogramming efficiency (AP-positive colonies),"[2]; 0.1 mM nicotinamide, compared to untreated group",13 times
same,increase in reprogramming efficiency (AP-positive colonies),"[2]; 1 mM nicotinamide, compared to untreated group",28 times
same,increase in reprogramming efficiency (AP-positive colonies),"[2]; 10 mM nicotinamide, compared to untreated group",16 times
same,increase in reprogramming efficiency (AP-positive colonies),"[2]; 20 mM nicotinamide, compared to untreated group",2 times
same,increase in reprogramming efficiency (AP-positive colonies),"[2]; compared to the addition of other NAD precursors, OSKM retrovirus MOI 1",about 17 times
same,efficiency of reprogramming by timing of treatment,[2]; continuous treatment throughout the process of inducing reprogramming,highest increase
same,"reprogramming efficiency, same cell number reseeded","[2]; nicotinamide for 5 days after infection, not added after reseeding, vs untreated control",increase in reprogramming efficiency
same,"reprogramming efficiency, same cell number reseeded","[2]; nicotinamide only after reseeding (21 days), not in initial stage, vs untreated",increase in reprogramming efficiency
same,efficiency of reprogramming by timing of treatment,[2]; treatment in initial stage immediately after viral infection,most effectively increased
same,period of time required until hiPSCs colonies,"[3]; cells treated with nicotinamide, 3 weeks or more generally required",≤ 2 weeks
same,increase in expression level of stem cell marker Nanog (immunostaining),[3]; [4],3 times
same,increase in expression level of stem cell marker Tra-1-60 (immunostaining),[3]; [4],8 times
same,mRNA expression levels of Nanog and TERT,"[3]; from day 7, real-time PCR",rapidly increased
same,recovery from damage caused by FK866,embryonic stem cells,recovered
